Measured values from patent publication US20230303599A1, “PRODRUGS OF PHOSPHONAMIDE NUCLEOTIDE ANALOGUES AND THEIR PHARMACEUTICAL USE” (priority 2020, published 2023).
Values after ≈ are worked out from the molar mass of the structure shown.

assay: Kinetic solubility analysis; format: physicochemical; conditions: 1× PBS, 24.2 °C, aqueous buffer, kinetic from dmso stock; pH 7.4 PBS, 1% DMSO, 24-hour incubation at ambient temperature
Procedure: Example 108: Kinetic Solubility Analysis
Buffer Preparation: 0.1 N HCl: Hydrochloric acid, 0.1 N standardized solution (MP Biomedicals part number 199569). 1×PBS, pH 7.4: Phosphate Buffered Saline (PBS) solution 10× (Fisher Bioreagent part number BP399-500) 50 mL was added to approximately 450 mL HPLC grade H2O. The volume of the solution was then adjusted to 500 mL for a total dilution factor of 1:10 and a final PBS concentration of 1×.
The final DMSO concentration was 1.0% (v/v) and maximum theoretical compound concentration is 100 μM (for compound stock concentration of 10 mM). The filter plate was sealed. Following 24-hour incubation at ambient temperature (24.2-27.5° C.), the samples were vacuum filtered and the filtrates were collected in a 96 well polypropylene plate for analysis. The collection plate was sealed for analysis. Filtrates were injected into the Antek 8060 chemiluminescent nitrogen detector for quantification. The results are reported in μM.
The filtrates were quantified with respect to this calibration curve. Each calculated solubility value was corrected for background nitrogen present in the DMSO and in the medium used to prepare the sample. All reported values for compounds containing adjacent nitrogen atoms in a ring structure were increased by approximately 25%.

Going from C[C@H](Cn1cnc2c(N)ncnc21)OCP(=O)(NC(C)(C)C(=O)O[C@H]1C[C@@H](c2ccccc2)C1)NC(C)(C)C(=O)O[C@H]1C[C@@H](c2ccccc2)C1 [Example 85, Bis((1s,3S)-3-phenylcyclobutyl) 2,2′-((((((R)-1-(6-amino-9H-purin-9-yl)propan-2-yl)oxy)methyl)phosphoryl)bis(azanediyl))bis(2-methylpropanoate)] to C[C@H](Cn1cnc2c(N)ncnc21)OCP(=O)(NC(C)(C)C(=O)O[C@H]1C[C@H](C(F)(F)F)C1)NC(C)(C)C(=O)O[C@H]1C[C@H](C(F)(F)F)C1 [Example 26, Bis(trans-3-(trifluoromethyl)cyclobutyl) 2,2′-((((((R)-1-(6-amino-9H-purin-9-yl)propan-2-yl)oxy)methyl)phosphoryl)bis(azanediyl))bis(2-methylpropanoate)], the solubility kinetic at 24 h rises from 6 µg/mL (≈ 8.36 µM) to 78 µg/mL (≈ 111 µM) (13-fold).

Going from CCCCCCOC(=O)C(C)(C)NP(=O)(CO[C@H](C)Cn1cnc2c(N)ncnc21)NC(C)(C)C(=O)O[C@H]1CC[C@H](C(F)(F)F)CC1 (stereo partly drawn) [Example 22, Hexyl 2-((((((R)-1-(6-amino-9H-purin-9-yl)propan-2-yl)oxy)methyl)((2-methyl-1-oxo-1-((trans-4-(trifluoromethyl)cyclohexyl)oxy)propan-2-yl)amino)phosphoryl)amino)-2-methylpropanoate] to CCCCCCOC(=O)C(C)(C)NP(=O)(CO[C@H](C)Cn1cnc2c(N)ncnc21)NC(C)(C)C(=O)OCC12CCC(CC1)C2 (stereo partly drawn) [Example 80, Bicyclo[2.2.1]heptan-1-ylmethyl 2-((((((R)-1-(6-amino-9H-purin-9-yl)propan-2-yl)oxy)methyl)((1-(hexyloxy)-2-methyl-1-oxopropan-2-yl)amino)phosphoryl)amino)-2-methylpropanoate], the solubility kinetic at 24 h rises from 36 µg/mL (≈ 52 µM) to 56 µg/mL (≈ 86.2 µM) (1.6-fold).

First: C[C@H](Cn1cnc2c(N)ncnc21)OCP(=O)(NC(C)(C)C(=O)OC1CCC1)NC(C)(C)C(=O)OC1CCC1 [Example 47, Dicyclobutyl 2,2′-(((((1-(6-amino-9H-purin-9-yl)propan-2-yl)oxy)methyl)phosphoryl)bis(azanediyl))(R)-bis(2-methylpropanoate)]
Second: C[C@H](Cn1cnc2c(N)ncnc21)OCP(=O)(NC(C)(C)C(=O)OC1CCC(C)(C)CC1)NC(C)(C)C(=O)OC1CCC(C)(C)CC1 [Example 44, Bis(4,4-dimethylcyclohexyl) 2,2′-(((((1-(6-amino-9H-purin-9-yl)propan-2-yl)oxy)methyl)phosphoryl)bis(azanediyl))(R)-bis(2-methylpropanoate)]
The solubility kinetic at 24 h of the first is 7.2-fold higher: 72 µg/mL (≈ 127 µM) for the first, 10 µg/mL (≈ 14.8 µM) for the second.

C[C@H](Cn1cnc2c(N)ncnc21)OCP(=O)(NC(C)(C)C(=O)OC1CC(C)(C)C1)NC(C)(C)C(=O)OC1CC(C)(C)C1 [Example 42, Bis(3,3-dimethylcyclobutyl) 2,2′-(((((1-(6-amino-9H-purin-9-yl)propan-2-yl)oxy)methyl)phosphoryl)bis(azanediyl))(R)-bis(2-methylpropanoate)] and C[C@H](Cn1cnc2c(N)ncnc21)OCP(=O)(NC(C)(C)C(=O)OC1CC2(CCC2)C1)NC(C)(C)C(=O)OC1CC2(CCC2)C1 (stereo partly drawn) [Example 41, Di(spiro[3.3]heptan-2-yl) 2,2′-(((((1-(6-amino-9H-purin-9-yl)propan-2-yl)oxy)methyl)phosphoryl)bis(azanediyl))(R)-bis(2-methylpropanoate)] are the same in solubility kinetic at 24 h: 54 µg/mL (≈ 86.9 µM) for the first, 54 µg/mL (≈ 83.6 µM) for the second.

Going from CCCCCCOC(=O)C(C)(C)NP(=O)(CO[C@H](C)Cn1cnc2c(NCc3oc(=O)oc3C)ncnc21)NC(C)(C)C(=O)OCCCCCC [Example 82, Dihexyl 2,2′-(((((1-(6-(((5-methyl-2-oxo-1,3-dioxol-4-yl)methyl)amino)-9H-purin-9-yl)propan-2-yl)oxy)methyl)phosphoryl)bis(azanediyl))(R)-bis(2-methylpropanoate)] to CCCCCCOC(=O)C(C)(C)NP(=O)(CO[C@H](C)Cn1cnc2c(NC(C)=O)ncnc21)NC(C)(C)C(=O)OCCCCCC [Example 28, Dihexyl 2,2′-(((((1-(6-acetamido-9H-purin-9-yl)propan-2-yl)oxy)methyl)phosphoryl)bis(azanediyl))(R)-bis(2-methylpropanoate)], the solubility kinetic at 24 h rises from 10 µg/mL (≈ 13.6 µM) to 55 µg/mL (≈ 82.4 µM) (5.5-fold).

Compared with CCCCCCOC(=O)[C@](C)(Cc1ccccc1)NP(=O)(CO[C@H](C)Cn1cnc2c(N)ncnc21)N[C@@](C)(Cc1ccccc1)C(=O)OCCCCCC [Example 11, Dihexyl 2,2′-((((((R)-1-(6-amino-9H-purin-9-yl)propan-2-yl)oxy)methyl)phosphoryl)bis(azanediyl))(2S,2'S)-bis(2-methyl-3-phenylpropanoate)], CCCCCCOC(=O)[C@](C)(CC)NP(=O)(CO[C@H](C)Cn1cnc2c(N)ncnc21)N[C@@](C)(CC)C(=O)OCCCCCC [Example 10, Dihexyl 2,2′-((((((R)-1-(6-amino-9H-purin-9-yl)propan-2-yl)oxy)methyl)phosphoryl)bis(azanediyl))(2S,2′S)-bis(2-methylbutanoate)] is higher in solubility kinetic at 24 h: under 1 µg/mL for the first, 7 µg/mL (≈ 10.7 µM) for the second.

First: CCCCCCOC(=O)C(C)(C)NP(=O)(CO[C@H](C)Cn1cnc2c(NC(=O)OCCCCC)ncnc21)NC(C)(C)C(=O)OCCCCCC [Example 32, Dihexyl 2,2′-(((((1-(6-(((pentyloxy)carbonyl)amino)-9H-purin-9-yl)propan-2-yl)oxy)methyl)phosphoryl)bis(azanediyl))(R)-bis(2-methylpropanoate)]
Second: CCCCCCOC(=O)C(C)(C)NP(=O)(CO[C@H](C)Cn1cnc2c(NC(=O)CCC)ncnc21)NC(C)(C)C(=O)OCCCCCC [Example 29, Dihexyl 2,2′-(((((1-(6-butyramido-9H-purin-9-yl)propan-2-yl)oxy)methyl)phosphoryl)bis(azanediyl))(R)-bis(2-methylpropanoate)]
The solubility kinetic at 24 h of the first is lower: under 1 µg/mL for the first, 26 µg/mL (≈ 37.4 µM) for the second.

C[C@H](Cn1cnc2c(N)ncnc21)OCP(=O)(NC(C)(C)C(=O)OCC(C)(C)C)NC(C)(C)C(=O)OCC(C)(C)C [Example 5] and CC(C)CCOC(=O)C(C)(C)NP(=O)(CO[C@H](C)Cn1cnc2c(N)ncnc21)NC(C)(C)C(=O)OCCC(C)C [Example 6, Diisopentyl 2,2′-(((((1-(6-amino-9H-purin-9-yl)propan-2-yl)oxy)methyl)phosphoryl)bis(azanediyl))(R)-bis(2-methylpropanoate)] are within 1.5-fold of each other in solubility kinetic at 24 h: 53 µg/mL (≈ 88.7 µM) for the first, 49 µg/mL (≈ 82 µM) for the second.

Going from CCC(CC)CCOC(=O)C(C)(C)NP(=O)(CO[C@H](C)Cn1cnc2c(N)ncnc21)NC(C)(C)C(=O)OCCC(CC)CC [Example 7, Bis(3-ethylpentyl) 2,2′-(((((1-(6-amino-9H-purin-9-yl)propan-2-yl)oxy)methyl)phosphoryl)bis(azanediyl))(R)-bis(2-methylpropanoate)] to CC(C)CCCCOC(=O)C(C)(C)NP(=O)(CO[C@H](C)Cn1cnc2c(N)ncnc21)NC(C)(C)C(=O)OCCCCC(C)C [Example 68, Bis(5-methylhexyl) 2,2′-(((((1-(6-amino-9H-purin-9-yl)propan-2-yl)oxy)methyl)phosphoryl)bis(azanediyl))(R)-bis(2-methylpropanoate)], the solubility kinetic at 24 h falls from 7 µg/mL (≈ 10.7 µM) to 3 µg/mL (≈ 4.59 µM) (2.3-fold).

First: C[C@H](Cn1cnc2c(N)ncnc21)OCP(=O)(NC(C)(C)C(=O)OCCCCC(F)(F)F)NC(C)(C)C(=O)OCCCCC(F)(F)F [Example 25, Bis(5,5,5-trifluoropentyl) 2,2′-(((((1-(6-amino-9H-purin-9-yl)propan-2-yl)oxy)methyl)phosphoryl)bis(azanediyl))(R)-bis(2-methylpropanoate)]
Second: CCCCCCOC(=O)C(C)(C)NP(=O)(CO[C@H](C)Cn1cnc2c(N)ncnc21)NC1(C(=O)OCCCCCC)CC1 (stereo partly drawn) [Example 20, Hexyl 1-((((((R)-1-(6-amino-9H-purin-9-yl)propan-2-yl)oxy)methyl)((1-(hexyloxy)-2-methyl-1-oxopropan-2-yl)amino)phosphoryl)amino)cyclopropane-1-carboxylate]
The solubility kinetic at 24 h of the first is 1.7-fold higher: 84 µg/mL (≈ 119 µM) for the first, 49 µg/mL (≈ 78.6 µM) for the second.

C[C@H](Cn1cnc2c(N)ncnc21)OCP(=O)(NC(C)(C)C(=O)OCC1CCCC1)NC(C)(C)C(=O)OCC1CCCC1 [Example 45, Bis(cyclopentylmethyl) 2,2′-(((((1-(6-amino-9H-purin-9-yl)propan-2-yl)oxy)methyl)phosphoryl)bis(azanediyl))(R)-bis(2-methylpropanoate)] and CC(C)OC(=O)C(C)(C)NP(=O)(CO[C@H](C)Cn1cnc2c(N)ncnc21)NC(C)(C)C(=O)OC(C)C [Example 43, Diisopropyl 2,2′-(((((1-(6-amino-9H-purin-9-yl)propan-2-yl)oxy)methyl)phosphoryl)bis(azanediyl))(R)-bis(2-methylpropanoate)] are within 1.5-fold of each other in solubility kinetic at 24 h: 64 µg/mL (≈ 103 µM) for the first, 53 µg/mL (≈ 97.9 µM) for the second.

Going from CCCC(CCC)COC(=O)C(C)(C)NP(=O)(CO[C@H](C)Cn1cnc2c(N)ncnc21)NC(C)(C)C(=O)OCC(CCC)CCC [Example 69, Bis(2-propylpentyl) 2,2′-(((((1-(6-amino-9H-purin-9-yl)propan-2-yl)oxy)methyl)phosphoryl)bis(azanediyl))(R)-bis(2-methylpropanoate)] to CCC(CC)COC(=O)C(C)(C)N[P@@](=O)(CO[C@H](C)Cn1cnc2c(N)ncnc21)NC1(C(=O)OCC(CC)CC)CC1 [Example 72, 2-Ethylbutyl 1-(((S)-((((R)-1-(6-amino-9H-purin-9-yl)propan-2-yl)oxy)methyl)((1-(2-ethylbutoxy)-2-methyl-1-oxopropan-2-yl)amino)phosphoryl)amino)cyclopropane-1-carboxylate], the solubility kinetic at 24 h rises from 1 µg/mL (≈ 1.47 µM) to 35 µg/mL (≈ 56.1 µM) (35-fold).
